Each structure is given as a SMILES string.

Assay [1] deals with T1, GTP-loaded KRAS proteins (residue 1-169 of KRAS4B) (Homo sapiens, UniProt P01116, G12V).
T1 construct: recombinant KRAS proteins (residue 1-169 of KRAS4B); His6 (TEV protease-cleavable) (cleaved yes); made in house; host or cells: E. coli
Description: RAS GTP hydrolysis rate assay (GTPase-Glo) with cyclophilin A. Format: biochemical. Particulars: bound in tri-complex with cyclophilin A; in some embodiments KRAS^G12V is the isoform used. The protocol:
(§1) The rate of RAS GTP hydrolysis was assayed in the presence of various KRAS mutations. To assess GTP hydrolysis activity, recombinant KRAS proteins (residue 1-169 of KRAS4B) were expressed in E. coli and purified using a TEV protease-cleavable His6-tag and Ni^2+ affinity chromatography. The His6 tag was removed by treatment with TEV protease, and the KRAS protein was isolated by passing through a second Ni^2+ column followed by size exclusion chromatography. The purified KRAS proteins were loaded with GTP by incubation for 2 hours on ice with 2 mM GTP and 10 mM Ethylenediaminetetraacetic Acid, followed by addition of 10 mM MgCl2 and incubation on ice for 1 additional hour. The excess GTP was removed by overnight dialysis against buffer (12.5 mM HEPES, 75 mM NaCl, pH 7.5) at 4° C. The GTP-loaded KRAS protein were flash frozen in liquid nitrogen, then stored at −80° C. until use.
(§2) GTP-loaded KRAS proteins (1 μM) were combined with 25 μM of recombinant human cyclophilin A and 10 μM of compound in reaction buffer (12.5 mM HEPES, 75 mM NaCl, 1 mM MgCl2, 1 mM DTT, 1% DMSO, pH 7.5) pre-warmed to 37° C. At fixed time points, aliquots were removed and quenched by heating to 80° C. to denature the proteins, then centrifuged to pellet the protein precipitate. The supernatant was assessed for GTP levels using Promega GTPase-Glo™ according to manufacturer instructions. The levels of GTP as a function of incubation time were fit to a single phase exponential decay to determine the rate constant for hydrolysis activity.

The test system of assay [2] is GTP-loaded KRAS proteins (residue 1-169 of KRAS4B). Described as above. Format: biochemical. Particulars: 10 μM compound, 25 μM cyclophilin A, 37° C. As to the method:
as §1, §2

As to `CO[C@@H](C)c1ncc(N2CCN(C)CC2)cc1-c1c2c3cc(ccc3n1CC(F)(F)F)-c1csc(n1)C[C@H](NC(=O)[C@H]1C[C@@H]1C)C(=O)N1CCC[C@H](N1)C(=O)OCC(C)(C)C2` (atropisomer, axis not shown) [compound 11], in assay [1], the “hydrolyzer class: RAS(ON) GTP hydrolysis rate relative to the intrinsic hydrolysis rate” value is 11 Moderate.
Same read-out and setting: to `CCn1c(-c2cc(N3CCN(C)CC3)cnc2[C@H](C)OC)c2c3cc(ccc31)-c1csc(n1)C[C@H](NC(=O)[C@H](C(C)C)N(C)C(=O)N1CC(N(C)C)C1)C(=O)N1CCC[C@H](N1)C(=O)OCC(C)(C)C2` (atropisomer, axis not shown) [compound 14] belongs 14 Moderate.
Same read-out and setting: for `CCO[C@@H]1c2nc(cs2)-c2ccc3c(c2)c(c(-c2cccnc2[C@H](C)OC)n3CC)CC(C)(C)COC(=O)[C@@H]2CCCN(N2)C(=O)[C@H]1NC(=O)[C@@H]1[C@@H](C)[C@H]1C(=O)N(C)C` (atropisomer, axis not shown) [compound 17] the value was 17 Weak; for `CCn1c(-c2cc(N3CCN(C)CC3)cnc2[C@H](C)OC)c2c3cc(ccc31)N1CCO[C@@H](C[C@H](NC(=O)[C@H]3C[C@@H]3C)C(=O)N3CCC[C@H](N3)C(=O)OCC(C)(C)C2)C1` (atropisomer, axis not shown) [compound 22], 22 Weak; for `CO[C@@H](C)c1ncccc1-c1c2c3cc(ccc3n1CC(F)(F)F)CCN(C)C[C@H](NC(=O)[C@H]1C[C@@H]1C)C(=O)N1CCC[C@H](N1)C(=O)OCC(C)(C)C2` (atropisomer, axis not shown) [compound 9], 9 Weak.
Still for that read-out and setting: for `CCn1c(-c2cc(N3CCN(C)CC3)cnc2[C@H](C)OC)c2c3cc(ccc31)-c1cccc(c1)C[C@H](NC(=O)[C@H]1C[C@@H]1C)C(=O)N1CCC[C@H](N1)C(=O)OCC(C)(C)C2` (atropisomer, axis not shown) [compound 20] the value was 20 Weak; for `CCn1c(-c2cccnc2[C@H](C)OC)c2c3cc(ccc31)-c1csc(n1)C[C@H](NC(=O)[C@H](C(C)C)N(C)C(=O)N1CC(OC)C1)C(=O)N1CCC[C@H](N1)C(=O)OCC(C)(C)C2` (atropisomer, axis not shown) [compound 19], 19 Moderate.
Turning to `CCO[C@@H]1c2nc(cs2)-c2ccc3c(c2)c(c(-c2cc(N4CCN(C)CC4)cnc2[C@H](C)OC)n3CC)CC(C)(C)COC(=O)[C@@H]2CCCN(N2)C(=O)[C@H]1NC(=O)[C@H]1[C@H](C)[C@@H]1C` (atropisomer, axis not shown) [compound 15], the “hydrolyzer class: RAS(ON) GTP hydrolysis rate relative to the intrinsic hydrolysis rate” value in assay [1] is reported as 15 Moderate.
In the case of `CCO[C@@H]1c2nc(cs2)-c2ccc3c(c2)c(c(-c2cc([C@@H]4CCN5CCOC[C@@H]5C4)cnc2[C@H](C)OC)n3CC)CC(C)(C)COC(=O)[C@@H]2CCCN(N2)C(=O)[C@H]1NC(=O)[C@H]1[C@H](C)[C@@H]1C` (atropisomer, axis not shown) [compound 16], the “hydrolyzer class: RAS(ON) GTP hydrolysis rate relative to the intrinsic hydrolysis rate” value in assay [1] was found to be 16 Moderate.
The same measure, in the same setting: for `CCn1c(-c2cc(N3CCN(C)CC3)cnc2[C@H](C)OC)c2c3cc(ccc31)-c1cccc(n1)C[C@H](NC(=O)[C@H]1C[C@@H]1C)C(=O)N1CCC[C@H](N1)C(=O)OCC(C)(C)C2` (atropisomer, axis not shown) [compound 21] the value was 21 Weak; for `CO[C@@H](C)c1ncccc1-c1c2c3cc(ccc3n1CC(F)(F)F)CCOC[C@H](NC(=O)[C@H]1C[C@@H]1C)C(=O)N1CCC[C@H](N1)C(=O)OCC(C)(C)C2` (atropisomer, axis not shown) [compound 10], 10 Moderate; for `CCn1c(-c2cc(N3CCN(C)CC3)cnc2[C@H](C)OC)c2c3cc(ccc31)-c1csc(n1)C[C@H](NC(=O)[C@H](C(C)C)N(C)C(=O)N(C)C)C(=O)N1CCC[C@H](N1)C(=O)OCC(C)(C)C2` (atropisomer, axis not shown) [compound 13], 13 Moderate.
Turning to `CCn1c(-c2cccnc2[C@H](C)OC)c2c3cc(ccc31)-c1cc(O)cc(c1)C[C@H](NC(=O)[C@H](C(C)C)N(C)C(=O)C1(C#N)CC1)C(=O)N1CCC[C@H](N1)C(=O)OCC(C)(C)C2` (racemic) [Compound F, reference compound], the “RAS GTP hydrolysis activation” value in assay [2] was “does not activate GTP hydrolysis”.
For the molecule `CCn1c(-c2cc(N3CCN(C)CC3)cnc2[C@H](C)OC)c2c3cc(ccc31)-c1csc(n1)C[C@H](NC(=O)[C@H]1C[C@@H]1C)C(=O)N1CCC[C@H](N1)C(=O)OCC(C)(C)C2` (atropisomer, axis not shown) [compound 12], the “hydrolyzer class: RAS(ON) GTP hydrolysis rate relative to the intrinsic hydrolysis rate” value in assay [1] was found to be 12 Moderate.
On the same count and under the same terms, to `CCO[C@@H]1c2nc(cs2)-c2ccc3c(c2)c(c(-c2cc(N4CCN(C)CC4)cnc2[C@H](C)OC)n3CCOC(C)C)CC(C)(C)COC(=O)[C@@H]2CCCN(N2)C(=O)[C@H]1NC(=O)N1CC[C@H]1C` (atropisomer, axis not shown) [compound 18] belongs 18 Weak.

These data come from patent publication US20260256780A1, “COMPOSITIONS FOR INDUCING RAS GTP HYDROLYSIS AND USES THEREOF” (Revolution Medicines, Inc., priority 2023, published 2026).
